Assay results from US5800820A, “Methods and compositions for treatment of angiogenic diseases” (Repligen Corporation, priority 1995, dated 1998).
Where “and” joins values, the source holds several entries; their conditions need not be identical. Equal values may be shown once.

Columns and labels:
Implanted tumors = experiment: Anti-tumor activity of rPF4 combined with indomethacin; type: in vivo, mice; conditions: s.c. tumors, indomethacin 50 μg slow release pellet; FIG. 10
Description: Four groups of mice were used in this experiment. In two groups of mice, slow release indomethacin pellets (50 μg) were implanted surgically under the skin of the left flank. The other two groups were not treated with indomethacin. Tumors were implanted subcutaneously in all four groups in the right flank.

[1] = system: hind footpad (murine dermis); experiment: Footpad assay (dermal inflammation); conditions: systemic indomethacin
Description: (§1) Footpad Assay. 0.05 ml of PBS containing a test substance was injected intradermally into the right hind footpad of each mouse. An identical amount of diluent, not containing the test substance, was injected into the left hind footpad. At various time points, footpad thicknesses were measured with a spring loaded engineer's micrometer (Fowler Co., Biggswald, England).
(§2) At various time points, mice were sacrificed and footpad tissue was prepared for light microscopy. This tissue was used to quantify infiltrating cell types. Biopsy specimens were fixed in 10% buffered formalin for at least 48 hours and then prepared using standard techniques of paraffin embedding and staining with hematoxylin and eosin. Using an ocular grid, four cellular areas of dermis in each specimen were examined in a coded fashion at 1000× magnification and inflammatory cells were quantified. Differences between groups were assessed by Student's t test or analysis of variance, where appropriate.
(§3) For each mouse, 0.05 mg, slow release indomethacin pellets (Innovative Research, Toledo, Ohio) were implanted subcutaneously under light ether anesthesia 48 hours prior to an experiment. These pellets continuously release their contents over 14 days.

[2] = system: heparin inhibition of Factor Xa; experiment: Factor Xa assay of heparin binding (prevention of heparin inhibition); type: biochemical
Description: The lysine rich region of PF4 (residues 61-66) is also the domain associated with the binding of heparin by PF4. Heparin is known to play a role in modulating angiogenesis, which can also be affected by protamine, another well characterized heparin-binding protein. To assess the ability of PF4-based synthetic peptides to bind heparin, we assayed the activity of coagulation-cascade enzymes which are inhibited by heparin. The Factor Xa assay used here has previously been described in Denton et al. (1983) Biochem. J. 209:455-460.

[3] = system: heparin inhibition of thrombin; experiment: Thrombin assay of heparin binding (prevention of heparin inhibition); type: biochemical; conditions: C-13: even at ten times an effective level of rPF4
[4] = system: hind footpad (murine dermis); conditions: mouse, in vivo
Description: as §1, §2, §3

angiogenesis on the CAM = experiment: Chicken chorioallantoic membrane (CAM) assay; type: in vivo; conditions: for biological activity in the CAM assay: Table 4, compared with rPF4-211
Description: Chicken Chorioallantoic Membrane (CAM) Assay. Fertile eggs were incubated in a stationary position for 3 days at 37° C. and 70-80% relative humidity. During this time, the embryo rose to the upper surface of the egg contents. At the beginning of the 4th day, the eggs were cracked without inversion and carefully deposited into sterile plastic petri dishes such that the embryo remained on the upper surface. The shell-free eggs were incubated for an additional 72 hours at 37° C., under an atmosphere containing 2.5-3.5% CO2 after which the growing embryos developed a recognizable CAM. Discs, made by mixing test samples with 1% (w/v) methylcellulose, were dried and placed on the CAM between major veins and approximately 0.5 cm from the embryo. Following another 48 hour incubation at 37° C. (2.5-3.5% CO2), the samples were scored for their ability to inhibit angiogenesis. Inhibition appears as an avascular zone surrounding the implant and can often include elbows formed by veins avoiding the disc and a reduced number of capillaries in the region of the implant.

[5] = system: Human umbilical vein endothelial cells (HUVEC); experiment: Endothelial cell proliferation assay; type: cell-based; conditions: for biological activity in the HUVEC assay: Table 4, compared with rPF4-211; for inhibition of human umbilical vein endothelial cell proliferation: FIG. 6
Description: Endothelial Cell Proliferation Assay. Human umbilical vein endothelial cells (HUVEC) were cultured in Medium 199 (Gibco) containing 10% (v/v) fetal bovine serum (FBS), 150 mcg/ml endothelial cell growth supplement (ECGS) and 5 units/ml heparin at 37° C. and 4-5% CO2. Every 3-4 days, the cultures were harvested by trypsin treatment, diluted, replated, and grown to confluence. Prior to the start of an experiment, the cells were centrifuged and resuspended in heparin-free media and incubated with the test substance (PF4) for 3 days under standard culture conditions. At the end of the incubation period, the cells were removed by trypsin treatment and counted with a Particle Data Elzone 180 Cell Counter. Statistical significance between means was determined by a standard Student t-test for unpaired data. […]

[6] = system: B16-F10 melanoma tumor line; experiment: In vivo tumor growth assay, injection into the nascent tumor; set-up: species or system C57BL/6J female mice
Description: In vivo Tumor Growth Assay. Normal C57BL/6J female mice (6-8 weeks old) were inoculated subcutaneously with 5×10^5 log phase cells of a B16-F10 melanoma tumor line. This protocol led to progressive tumor growth resulting in large (300 mm^3) necrotic tumors after approximately 10 days, followed by death of untreated animals usually within three weeks of tumor inoculation.
To test the efficacy of rPF4 in preventing in vivo tumor growth and angiogenesis, tumor bearing animals were injected daily, directly into the nascent tumor, with either rPF4 or with buffer lacking rPF4, beginning one day after tumor inoculation. Tumor volume was measured at regular intervals with digital calipers by laboratory personnel uninformed of the specific treatment received by each subject animal.
The efficacy of rPF4-211 or rPF4-241 in preventing tumor growth and angiogenesis was tested. The inhibition of in vivo tumor growth was assayed after injection of either rPF4-211 (in 20 mM NaOAc, pH 4.0) or rPF4-241 (in 50 mM sodium phosphate, pH 6.5, 50 mM NaCl) directly into the nascent tumor, as described in the materials and methods section above.

[7] = system: B16 murine melanoma cell line; experiment: Systemic rPF4 against B16 melanoma lung metastases; type: in vivo; conditions: for # of Metastases (#/Mouse) / Lung Wt.: day 21, average of six mice
Description: Cells of a B16 murine melanoma cell line were injected intravenously into a tail vein of a mouse. Thirty seconds later, rPF4 (in saline or acetate buffer) was injected into the same mouse via a different tail vein. After 21 days, the tumor burden of the test and control animals was measured by counting, optically, lung metastases, and by weighing the lungs of the mice. Referring to Table 6, PF4 produced a dose-dependent effect, as measured by both parameters.

tumor cell growth = experiment: Tumor cell growth in vitro; type: cell-based
Kaposi's sarcoma = experiment: Cancers that contain malignant endothelial cells; conditions: such as Kaposi's sarcoma
[8] = system: Human umbilical vein endothelial cells (HUVEC); experiment: Endothelial cell proliferation assay; type: cell-based; conditions: rPF4 50 mcg/ml, 5 u/ml heparin
[9] = heparin-deficient medium, FIG. 3
[10] = 0.375 mg rPF4 i.v. (19.7 mg/kg)

Molecule: COc1ccc2c(c1)c(CC(=O)O)c(C)n2C(=O)c1ccc(Cl)cc1 [indomethacin]
- growth of implanted tumors (Implanted tumors): grew rapidly after day 6
- effect on the inflammatory cell infiltrate induced by rPF4 [1]: partially abrogated
- effect on the rPF4 pro-inflammatory response ([1]; FIG. 8): significantly blunts

Molecule: C-41: 41 amino acid C-terminal peptide of PF4 (IKAGPHCPTAQLIATLKNGRKICLDLQAPLYKKIIKKLLES; Platelet factor 4; UniProt P02776 61-101, looked up, fragment)
- prevention of heparin inhibition of Factor Xa [2]: prevented heparin inhibition less effectively
- prevention of heparin inhibition of thrombin [3]: prevented heparin inhibition less effectively
- Pro-inflammatory response Infiltrating [4]: ++
- Pro-inflammatory response Swelling [4]: ++
- composition of the inflammatory infiltrate [4]: composed of neutrophils and to a lesser degree mononuclear cells
- inflammatory response [4]: pro-inflammatory

Molecule: cytochrome c [reference compound]
- inflammatory response [4]: failed to elicit a significant inflammatory response

Molecule: polylysine [reference compound]
- inhibition of angiogenesis on the CAM (angiogenesis on the CAM; 6.5 nmol dosages): not to cause inhibition

Molecule: protamine [reference compound]
- prevention of heparin inhibition of Factor Xa [2]: approximately equimolar concentrations
- prevention of heparin inhibition of thrombin [3]: approximately equimolar concentrations

Molecule: rPF4-231: rPF4 mutant that terminates at amino acid number 60: [PF4 AA 1-57] P L Y (EAEEDGDLQCLCVKTTSQVRPRHITSLEVIKAGPHCPTAQLIATLKNGRKICLDLQAPLY; Platelet factor 4 recombinant; UniProt P02776 32-91, looked up, fragment)
- biological activity in the CAM assay (angiogenesis on the CAM): does not exhibit significant biological activity
- biological activity in the HUVEC assay [5]: does not exhibit significant biological activity

Molecule: rPF4: recombinant platelet factor 4 with the wild type sequence, 70 residues; residues 58-70 P L Y K K I I K K L L E S
- inhibition of angiogenesis on the CAM (angiogenesis on the CAM; discs containing several concentrations, FIG. 2): inhibited angiogenesis
- prevention of heparin inhibition of Factor Xa [2]: approximately equimolar concentrations
- prevention of heparin inhibition of thrombin [3]: approximately equimolar concentrations
- inhibition of human umbilical vein endothelial cell proliferation [5]: effective at inhibiting the proliferation
- concentration at which inhibition of endothelial cell growth was complete [5, 9]: 3.2 µM
- lowest concentration with significant inhibition of endothelial cell growth [5, 9]: 1.3 µM
- endothelial cell growth (cell count) ([5]; rPF4 50 mcg/ml, no heparin, three day incubation): 6.0 ± 0.6
- % Inhibition ([5]; rPF4 50 mcg/ml, no heparin, based on seeding of 8 × 10^4 cells/well): 100% and ~ 100%
- time until inhibition of tumor growth was apparent ([6]; after the initial inoculation of rPF4): apparent within three days
- tumor growth on continued treatment ([6]; daily injection into the tumor): completely suppressed tumor growth
- tumor status ([6]; within seven days of tumor inoculation, daily injection into the tumor, FIG. 7): essentially tumor-free
- # of Metastases (#/Mouse) [7, 10]: 112.2 #/Mouse
- Lung Wt. [7, 10]: 525 mg
- # of Metastases (#/Mouse) ([7]; 0.75 mg rPF4 i.v. (40.1 mg/kg)): 66.0 #/Mouse
- Lung Wt. ([7]; 0.75 mg rPF4 i.v. (40.1 mg/kg)): 404 mg
- # of Metastases (#/Mouse) ([7]; 1.5 mg rPF4 i.v. (84.2 mg/kg)): 54.7 #/Mouse
- Lung Wt. ([7]; 1.5 mg rPF4 i.v. (84.2 mg/kg)): 357 mg
- toxicity or other adverse effects ([7]; systemic dosages in excess of 5000 μg per kg of body weight): no observable toxicity or other adverse effects
- direct inhibition of tumor cell growth in vitro (tumor cell growth): did not directly inhibit tumor cell growth in vitro
- effect on cancers that contain malignant endothelial cells (Kaposi's sarcoma): inhibitory
- growth of implanted tumors (Implanted tumors): grew very little, if at all
- Pro-inflammatory response Infiltrating [4]: ++
- Pro-inflammatory response Swelling [4]: ++
- composition of the inflammatory infiltrate [4]: composed of neutrophils and to a lesser degree mononuclear cells
- onset of acute inflammation [4]: within two hours
- endothelial cell growth (cell count) ([8]; three day incubation): 14.0 ± 0.4
- % Inhibition ([8]; based on seeding of 8 × 10^4 cells/well): 45%

B1: rPF4-241: PF4 mutant, four lysine residues near the C-terminus changed to two Gln-Glu couplets: P L Y Q E I I Q E L L E S (protein, UniProt P02776 32-101, looked up, variant K61Q K62E K65Q K66E)
Platelet factor 4: EAEEDGDLQCLCVKTTSQVRPRHITSLEVIKAGPHCPTAQLIATLKNGRKICLDLQAPLYQEIIQELLES
modifications: Platelet factor 4 recombinant
notes: PF4 mutant, four lysine residues near the C-terminus changed to two Gln-Glu couplets: P L Y Q E I I Q E L L E S
- inhibition of angiogenesis in the CAM system (angiogenesis on the CAM; 1.25 nmol/disc, lowest concentration tested, FIG. 5): extensively inhibited angiogenesis
- reversal of the inhibitory effect by heparin (angiogenesis on the CAM; CAM): not reversed by heparin
- biological activity in the CAM assay (angiogenesis on the CAM): enhanced activity
- inhibition of angiogenesis compared with native rPF4 (angiogenesis on the CAM; equal concentrations, larger avascular zones): even more effective
- heparin-binding activity ([2]; Factor Xa inhibition assay): lacked heparin-binding activity
- inhibition of human umbilical vein endothelial cell proliferation [5]: effective at inhibiting the proliferation
- biological activity in the HUVEC assay [5]: enhanced activity
- tumor growth on continued treatment ([6]; daily injection into the tumor): same effect was observed
- Pro-inflammatory response Infiltrating [4]: +
- Pro-inflammatory response Swelling [4]: +

B2: rPF4-307: rPF4 mutant, C-terminal sequence P L Y Q I E I Q L E L E S (protein, UniProt P02776 32-101, looked up, variant K61Q K62I I63E I64I K65Q K66L L67E L68L)
Platelet factor 4: EAEEDGDLQCLCVKTTSQVRPRHITSLEVIKAGPHCPTAQLIATLKNGRKICLDLQAPLYQIEIQLELES
modifications: Platelet factor 4 recombinant
- biological activity in the CAM assay (angiogenesis on the CAM): enhanced activity
- biological activity in the HUVEC assay [5]: enhanced activity

B3: rPF4-302: rPF4 mutant, C-terminal sequence P L Y Q Q I I Q Q L L E S (protein, UniProt P02776 32-101, looked up, variant K61Q K62Q K65Q K66Q)
Platelet factor 4: EAEEDGDLQCLCVKTTSQVRPRHITSLEVIKAGPHCPTAQLIATLKNGRKICLDLQAPLYQQIIQQLLES
modifications: Platelet factor 4 recombinant
- biological activity in the CAM assay (angiogenesis on the CAM): does not exhibit significant activity
- biological activity in the HUVEC assay [5]: does not exhibit significant activity
